Reference: patent publication US9850281B2, “Cladosporium peptides” (Circassia Limited, priority 2012, dated 2017)
Where no end group is shown, it is not given here. [ ]: non-standard residue; d: D form. Nle = CCCC[C@H](N)C(=O)O

Legend:
[1] = system: Peripheral blood mononuclear cells (PBMCs); test: Cytokine release assay (multiplex bead assay IL-10, IL-13, IFN-g) on PBMCs of mould allergic subjects; type: cell-based, human; details: 50 mould allergic subjects; for cytokine response in the population (in words): summary of Tables 8-10; for % responders: cytokine release greater than 50 pg/ml in one or more of IL-13, IL-10 and IFN-g, polypeptide 100 μg/ml, 5 days
Method: Polypeptides for use in this assay were manufactured at small scale (approximately 10 mg batch size, non-GMP). […] Polypeptides were added to wells in a volume of 100 μl containing polypeptides at a concentration of 200 μg/ml, such that subsequent addition of 100 μl of cells would create a final assay concentration of 100 μg/ml.
Peripheral blood mononuclear cells (PBMCs) were isolated from heparinised blood by Ficoll density gradient centrifugation. A 100 μl aliquot of a 5×10^6 cell/ml PBMC suspension was then added to each well and the plates placed in a humidified 5% CO2 incubator at 37° C. for 5 days. Following stimulation, culture supernatants (100 μl) were harvested for testing by multiplex bead assay.
Multiplex cytokine bead assays (IL-10, IL-13, Interferon gamma (IFN-g)) were performed on thawed culture supernatants according to the manufacturer's instructions. Single measurements were performed for each culture supernatant sample. After completion of the multiplex assay, individual cytokine levels were determined by interpolation from the standard curve generated in the assay. A positive result was taken as a cytokine release of greater than 50 pg/ml in one or more of the IL-13, IL-10 and IFN-g assays. The number of responders out of 50 mould allergic subjects tested was calculated for each polypeptide for the three cytokines.

[2] = system: Peripheral blood mononuclear cells (PBMCs); test: as above; type: cell-based, human; details: 50 mould allergic subjects, polypeptide 100 μg/ml, 5 days

| Substance | cytokine response in the population (in words) [1] | % responders [1] [%] | % responders (IFN-g release greater than 100 pg/ml) [2] [%] |
| --- | --- | --- | --- |
| AEVYQKLKALAKKTYGQ [Alt13A] | top performing | 86 |  |
| AEVYQKLKSLTKK [Cla16] | showed responses in the population | 36 | 16 |
| ANYTQTKTVSIRL [Cla29] | showed responses in the population | 48 | 28 |
| GGYKAAVRPT-Nle-LE (GGYKAAVRPT[Nle]LE) [Cla35A] | increased response compared to the polypeptide having the sequence of Cla35 | 48 |  |
| GGYKAAVRPTMLE [Cla35] | showed responses in the population | 34 | 28 |
| GHHFKERGTGSLVIT [Cla26] | showed responses in the population | 44 | 28 |
| GLHFRERKTGSLVIT [Alt21] |  | 38 |  |
| GWGV-Nle-VSHRSGET (GWGV[Nle]VSHRSGET) [Alt14A] | top performing | 56 |  |
| GWGVMVSHRSGET [Alt14] | top performing | 44 |  |
| GYTGKIKIA-Nle-DVASSE (GYTGKIKIA[Nle]DVASSE) [Alt15A] | top performing | 42 |  |
| GYTGKIKIAMDVASSE [Alt15] | top performing | 56 |  |
| KLWHS-Nle-IP-Nle-GRDAK (KLWHS[Nle]IP[Nle]GRDAK) [Alt24A] |  | 40 |  |
| KLWHSMIP-Nle-GRDAK (KLWHSMIP[Nle]GRDAK) [Alt24C] |  | 36 |  |
| KLWHSMIPMGRDAK [Alt24] |  | 34 |  |
| LAITYNSRAEGAEK [Alt20] |  | 38 |  |
| NEWRDFARVNSISP [Alt23] |  | 40 |  |
| VAITYASRAQGAEK [Cla25A] | showed responses in the population | 44 | 22 |
| WSWKIGPAIATGNT [Alt28] | top performing | 52 |  |
